Assay results taken from PMC3898733 (ACS nano, 2013).

System: Factor VII
Assay: In vivo Factor VII silencing
Conditions: for knock down of coagulation Factor VII: as stated in the abstract, dose not printed there; for activity in decreasing Factor VII expression: nanoparticles decorated with scrambled peptide, three days post injection

Substance | knock down of coagulation Factor VII | reduction of Factor VII expression (peptide decorated nanoparticles with Factor VII siRNA, tail vein, 5 mg/kg siRNA, blood three days post-injection, n=5) | activity in decreasing Factor VII expression (5 mg/kg siRNA)
CWLCRALIKRIQAMIP [compound 5] | 90% | 50% | 
KRCRGWRQKMCLW |  |  | did not exhibit any activity
LRGYEGHRCGILALLDLACTKHANCLPCTQPS |  |  | did not exhibit any activity
MLRIAIRAWLCIPQCK |  |  | did not exhibit any activity
lactoferricin | 90% |  | 
